Tests used:
Assay in all cases: purified recombinant isozyme activity assay, NADH formation at […] nm with acetaldehyde and NAD+
Assay type in all cases: biochemical
ALDH1A1 = molecular target: T1, ALDH1A1 (Homo sapiens, UniProt P00352)
T1 sequence (P00352 2-501): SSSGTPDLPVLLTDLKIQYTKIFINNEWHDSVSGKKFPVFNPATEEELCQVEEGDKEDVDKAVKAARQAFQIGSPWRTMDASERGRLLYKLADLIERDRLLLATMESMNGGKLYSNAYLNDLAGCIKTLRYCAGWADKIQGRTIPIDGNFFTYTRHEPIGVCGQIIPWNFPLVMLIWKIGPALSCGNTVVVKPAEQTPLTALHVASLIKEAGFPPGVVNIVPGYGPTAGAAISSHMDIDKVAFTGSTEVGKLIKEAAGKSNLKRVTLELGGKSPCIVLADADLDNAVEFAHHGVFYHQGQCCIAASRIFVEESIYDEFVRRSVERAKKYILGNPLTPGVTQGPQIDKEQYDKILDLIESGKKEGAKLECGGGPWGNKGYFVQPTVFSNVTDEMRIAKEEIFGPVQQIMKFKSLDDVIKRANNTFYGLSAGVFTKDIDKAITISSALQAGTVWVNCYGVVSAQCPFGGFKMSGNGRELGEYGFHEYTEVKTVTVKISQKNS

ALDH3A1 = molecular target: T2, ALDH3A1 (Homo sapiens, UniProt P30838)
T2 sequence (P30838 2-453): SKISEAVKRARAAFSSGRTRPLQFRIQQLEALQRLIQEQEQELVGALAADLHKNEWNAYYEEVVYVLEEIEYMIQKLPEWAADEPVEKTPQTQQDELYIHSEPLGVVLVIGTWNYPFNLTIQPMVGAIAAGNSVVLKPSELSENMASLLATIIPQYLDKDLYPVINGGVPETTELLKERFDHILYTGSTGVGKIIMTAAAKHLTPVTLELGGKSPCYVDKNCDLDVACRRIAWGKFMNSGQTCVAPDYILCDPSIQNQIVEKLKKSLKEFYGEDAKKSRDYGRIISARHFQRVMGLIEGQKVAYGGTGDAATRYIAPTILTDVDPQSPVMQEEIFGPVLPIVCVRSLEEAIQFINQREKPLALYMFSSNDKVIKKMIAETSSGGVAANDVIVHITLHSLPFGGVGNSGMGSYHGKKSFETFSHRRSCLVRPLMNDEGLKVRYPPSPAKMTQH

ALDH2 = molecular target: T3, ALDH2 (Homo sapiens, UniProt P05091)
T3 sequence (P05091 18-517): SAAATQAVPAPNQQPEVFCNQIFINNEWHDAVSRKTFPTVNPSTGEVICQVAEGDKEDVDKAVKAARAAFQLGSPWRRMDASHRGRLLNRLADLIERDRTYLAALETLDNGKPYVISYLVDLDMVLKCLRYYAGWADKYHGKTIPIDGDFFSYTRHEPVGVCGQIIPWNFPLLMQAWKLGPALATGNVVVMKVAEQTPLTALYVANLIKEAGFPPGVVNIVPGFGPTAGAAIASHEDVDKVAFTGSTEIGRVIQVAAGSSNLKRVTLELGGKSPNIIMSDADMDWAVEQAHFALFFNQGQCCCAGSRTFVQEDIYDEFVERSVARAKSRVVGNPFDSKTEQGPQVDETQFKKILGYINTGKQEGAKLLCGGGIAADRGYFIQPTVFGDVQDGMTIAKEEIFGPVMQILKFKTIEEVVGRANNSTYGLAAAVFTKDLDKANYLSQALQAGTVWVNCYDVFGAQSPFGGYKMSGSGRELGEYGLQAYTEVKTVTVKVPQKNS

CN(C)CCC(=O)c1ccc(Br)cc1 [Aldi-6, 3-(Dimethylamino)-4′-bromopropiophenone]
IC50 (ALDH1A1): 600 nM | IC50 (ALDH3A1): 1000 nM | IC50 (ALDH2): 800 nM

— paper PMC5581033, “Targeting aldehyde dehydrogenase activity in head and neck squamous cell carcinoma with a novel small molecule inhibitor” (Oncotarget, 2017)
